# Test results: patent US12291518B2, “Thyroid hormone receptor agonists and use thereof” (Eccogene Inc., priority 2020, dated 2025)
# What was measured:
# THR beta-LBD = target: T1, THR beta-LBD (Homo sapiens, UniProt P10828); assay: THR-β Coactivator Peptide Recruitment Assay (LanthaScreen TR-FRET); type: biochemical; settings: TR-FRET coactivator recruitment, THR beta-LBD 0.5 nM; for EC50: read-out: THRβ EC50
# T1 construct: THR beta-LBD (the final concentration is 0.5 nM) was added to the 384-well assay plate; purchased Invitrogen PV4686
# T1 sequence (P10828 217-461 limits assumed): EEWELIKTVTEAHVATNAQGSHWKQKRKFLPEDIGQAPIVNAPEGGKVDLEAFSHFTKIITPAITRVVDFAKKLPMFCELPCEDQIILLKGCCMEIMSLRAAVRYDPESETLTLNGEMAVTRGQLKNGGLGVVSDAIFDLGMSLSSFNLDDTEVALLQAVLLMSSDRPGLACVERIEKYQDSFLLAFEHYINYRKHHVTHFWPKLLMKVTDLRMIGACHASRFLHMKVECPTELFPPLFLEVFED
# Description: (§1) A time-resolved FRET (TR-FRET) assay was used to test representative compounds of the application.
# (§2) THR-β Coactivator Peptide Recruitment Assay were conducted by using Invitrogen's LanthaScreen™ TR-FRET Thyroid Receptor beta Assay Kit (Catalog no. PV4686). Binding of an agonist to the nuclear receptor causes a subsequent binding of a coactivator peptide, resulting in fluorescence energy transfer from the labelled nuclear receptor to the proximal coactivator peptide, which reflects the binding affinity of the agonist and the nuclear receptor. The assay was conducted by following the manufacturer's instructions. Briefly, THR beta-LBD (the final concentration is 0.5 nM) was added to the 384-well assay plate containing test compounds, followed by addition of Fluorescein-SRC2-2 coactivator peptide and terbium (Tb)-labeled anti-GST antibody. The final concentration of THR beta-LBD, Fluorescein-SRC2-2 coactivator peptide and terbium (Tb)-labeled anti-GST antibody is 0.5 nM, 0.1 nM and 2 nM, respectively. After a gentle mix and incubation at room temperature for 2 h, the signal was read on the EnVision Multilabel Plate Reader at wavelengths of 520 nm and 495 nm. TR-FRET ratio was calculated by dividing the emission signal at 520 nm and the emission signal at 495 nm, and then was plotted against a sigmoidal dose response curve (four parameters, GraphPad™ Prism 8) to determine the EC50 value.
# THR alpha-LBD = target: T2, THR alpha-LBD (Homo sapiens, UniProt P10827); assay: THR-α Coactivator Peptide Recruitment Assay (LanthaScreen TR-FRET); type: biochemical; settings: TR-FRET coactivator recruitment, THR alpha-LBD 0.25 nM; for EC50: read-out: THRα EC50
# T2 construct: except that THR alpha-LBD of a final concentration 0.25 nM was used; purchased Invitrogen PV4687
# Description: as §1, §2
# THR-α Coactivator Peptide Recruitment Assay were conducted by using Invitrogen's LanthaScreen™ TR-FRET Thyroid Receptor alpha Assay Kit (Catalog no. PV4687), following the same method described above except that THR alpha-LBD of a final concentration 0.25 nM was used.
# T2 sequence (P10827 163-410 isoform P10827-2 limits assumed, other chains not shown): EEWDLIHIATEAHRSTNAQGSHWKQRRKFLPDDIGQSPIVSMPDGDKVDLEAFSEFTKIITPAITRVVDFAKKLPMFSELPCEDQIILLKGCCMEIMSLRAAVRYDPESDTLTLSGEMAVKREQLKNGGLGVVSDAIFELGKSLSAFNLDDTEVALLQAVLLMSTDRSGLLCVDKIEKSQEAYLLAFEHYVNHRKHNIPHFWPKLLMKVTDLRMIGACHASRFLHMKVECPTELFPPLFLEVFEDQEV
SMILES,THRβ Emax (THR beta-LBD),EC50 (THR beta-LBD),THRα Emax (THR alpha-LBD),EC50 (THR alpha-LBD)
"CN1C[C@@H](NS(=O)(=O)c2cc(Oc3c(Cl)cc(-n4nc(C(F)F)c(=O)[nH]c4=O)cc3Cl)ccc2O)CC1=O (single isomer, unassigned) [Compound 34]",C (<75),20 to 100 nM,B (40~85),200 to 1000 nM
"CN1C[C@H](NS(=O)(=O)c2cc(Oc3c(Cl)cc(-n4nc(C(F)F)c(=O)[nH]c4=O)cc3Cl)ccc2O)CC1=O (single isomer, unassigned) [Compound 35]",C (<75),20 to 100 nM,B (40~85),200 to 1000 nM
"O=c1[nH]c(=O)n(-c2cc(Cl)c(Oc3cc(S(=O)(=O)N[C@@H]4CC[C@@H]4O)c(O)cn3)c(Cl)c2)nc1C(F)F (stereo in doubt) [Compound 170, 2-[2,6-dichloro-4-[6-(difluoromethyl)-3,5-dioxo-1,2,4-triazin-2-yl]phenoxy]-5-hydroxy-N-[(1R,2S)-2-hydroxycyclobutyl]pyridine-4-sulfonamide]",C (<75),20 to 100 nM,B (40~85),200 to 1000 nM
"O=c1[nH]c(=O)n(-c2cc(Cl)c(Oc3cc(S(=O)(=O)N[C@@H]4CC[C@H]4O)c(O)cn3)c(Cl)c2)nc1C(F)F (stereo in doubt) [Compound 171, 2-[2,6-dichloro-4-[6-(difluoromethyl)-3,5-dioxo-1,2,4-triazin-2-yl]phenoxy]-5-hydroxy-N-[(1R,2R)-2-hydroxycyclobutyl]pyridine-4-sulfonamide]",C (<75),20 to 100 nM,C (<40),200 to 1000 nM
"O=C(NC1CCC1)c1cc(Oc2c(Cl)cc(-n3nc(C(F)F)c(=O)[nH]c3=O)cc2Cl)ccc1O [Compound 1, N-cyclobutyl-5-[2,6-dichloro-4-[6-(difluoromethyl)-3,5-dioxo-1,2,4-triazin-2-yl]phenoxy]-2-hydroxy-benzamide]",A (90~110),2 to 20 nM,B (40~85),2 to 200 nM
"O=C(N[C@H]1C[C@H](O)C1)c1cc(Oc2c(Cl)cc(-n3nc(C(F)F)c(=O)[nH]c3=O)cc2Cl)ccc1O [Compound 2, 5-(2,6-dichloro-4-(6-(difluoromethyl)-3,5-dioxo-4,5-dihydro-1,2,4-triazin-2(3H)-yl)phenoxy)-2-hydroxy-N-((1r,3r)-3-hydroxycyclobutyl)benzamide]",B (75~90),2 to 20 nM,B (40~85),200 to 1000 nM
"O=C(NC1CC(F)(F)C1)c1cc(Oc2c(Cl)cc(-n3nc(C(F)(F)F)c(=O)[nH]c3=O)cc2Cl)ccc1O [Compound 3, 5-[2,6-dichloro-4-[3,5-dioxo-6-(trifluoromethyl)-1,2,4-triazin-2-yl]phenoxy]-N-(3,3-difluorocyclobutyl)-2-hydroxy-benzamide]",A (90~110),20 to 100 nM,B (40~85),> 1000 nM
"CC(C)(C)NC(=O)c1cc(Oc2c(Cl)cc(-n3nc(C(F)(F)F)c(=O)[nH]c3=O)cc2Cl)ccc1O [Compound 4, N-(tert-butyl)-5-(2,6-dichloro-4-(3,5-dioxo-6-(trifluoromethyl)-4,5-dihydro-1,2,4-triazin-2(3H)-yl)phenoxy)-2-hydroxybenzamide]",A (90~110),20 to 100 nM,B (40~85),200 to 1000 nM
"O=C(NC1CCC1)c1cc(Oc2c(Cl)cc(-n3nc(C(F)(F)F)c(=O)[nH]c3=O)cc2Cl)ccc1O [Compound 5, N-cyclobutyl-5-(2,6-dichloro-4-(3,5-dioxo-6-(trifluoromethyl)-4,5-dihydro-1,2,4-triazin-2(3H)-yl)phenoxy)-2-hydroxybenzamide]",A (90~110),20 to 100 nM,B (40~85),> 1000 nM
"O=C(NC12CC3(F)CC(F)(CC(F)(C3)C1)C2)c1cc(Oc2c(Cl)cc(-n3nc(C(F)F)c(=O)[nH]c3=O)cc2Cl)ccc1O [Compound 6, 5-(2,6-dichloro-4-(6-(difluoromethyl)-3,5-dioxo-4,5-dihydro-1,2,4-triazin-2 (3H)-yl)phenoxy)-2-hydroxy-N-(3,5,7-trifluoroadamantan-1-yl) benzamide]",B (75~90),20 to 100 nM,B (40~85),> 1000 nM
"O=c1[nH]c(=O)n(-c2cc(Cl)c(S(=O)(=O)c3ccc(O)c(C4CCC4)c3)c(Cl)c2)nc1C(F)(F)F [Compound 9, 2-[3,5-dichloro-4-(3-cyclobutyl-4-hydroxy-phenyl)sulfonyl-phenyl]-6-(trifluoromethyl)-1,2,4-triazine-3,5-dione]",A (90~110),> 100 nM,B (40~85),200 to 1000 nM
"O=C(NC1CCC1)c1cc(Oc2c(Cl)cc(-n3nc(C(F)(F)F)c(=O)[nH]c3=O)cc2Cl)c(F)cc1O [Compound 10, N-cyclobutyl-5-[2,6-dichloro-4-[3,5-dioxo-6-(trifluoromethyl)-1,2,4-triazin-2-yl]phenoxy]-4-fluoro-2-hydroxy-benzamide]",B (75~90),> 100 nM,C (<40),> 1000 nM
"O=C(NC1CCC1)c1cc(Oc2c(Cl)cc(-n3nc(C(F)F)c(=O)[nH]c3=O)cc2Cl)c(F)cc1O [Compound 11, N-cyclobutyl-5-[2,6-dichloro-4-[6-(difluoromethyl)-3,5-dioxo-1,2,4-triazin-2-yl]phenoxy]-4-fluoro-2-hydroxy-benzamide]",A (90~110),> 100 nM,B (40~85),> 1000 nM

# The remaining lines, values ahead:
THRβ Emax (THR beta-LBD),EC50 (THR beta-LBD),THRα Emax (THR alpha-LBD),EC50 (THR alpha-LBD),SMILES
C (<75),2 to 20 nM,B (40~85),200 to 1000 nM,"O=c1[nH]c(=O)n(-c2cc(Cl)c(Oc3ccc(O)c(S(=O)(=O)N[C@@H]4CC[C@@H](O)C4)c3)c(Cl)c2)nc1C(F)F (racemic) [Compound 75, 5-(2,6-dichloro-4-(6-(difluoromethyl)-3,5-dioxo-4,5-dihydro-1,2,4-triazin-2(3H)-yl)phenoxy)-2-hydroxy-N-((1R,3R)-3-hydroxycyclopentyl)benzenesulfonamide]"
A (90~110),< 2 nM,A (85~110),2 to 200 nM,"O=C(c1cc(Oc2c(Cl)cc(-n3nc(Cl)c(=O)[nH]c3=O)cc2Cl)ccc1O)N1C[C@H]2CC[C@@H]1C2 (single isomer, unassigned) [Compound 7]"
B (75~90),< 2 nM,B (40~85),2 to 200 nM,"O=C(c1cc(Oc2c(Cl)cc(-n3nc(Cl)c(=O)[nH]c3=O)cc2Cl)ccc1O)N1C[C@@H]2CC[C@H]1C2 (single isomer, unassigned) [Compound 8]"
A (90~110),< 2 nM,A (85~110),< 2 nM,"O=c1[nH]c(=O)n(-c2cc(Cl)c(Oc3ccc(O)c(S(=O)(=O)NC4CCC4)c3)c(Cl)c2)nc1C(F)F [Compound 12, N-cyclobutyl-5-[2,6-dichloro-4-[6-(difluoromethyl)-3,5-dioxo-1,2,4-triazin-2-yl]phenoxy]-2-hydroxy-benzenesulfonamide]"
A (90~110),< 2 nM,A (85~110),< 2 nM,"CNS(=O)(=O)c1cc(Oc2c(Cl)cc(-n3nc(C(F)F)c(=O)[nH]c3=O)cc2Cl)ccc1O [Compound 13, 5-(2,6-dichloro-4-(6-(difluoromethyl)-3,5-dioxo-4,5-dihydro-1,2,4-triazin-2(3H)-yl)phenoxy)-2-hydroxy-N-methylbenzenesulfonamide]"
A (90~110),< 2 nM,A (85~110),< 2 nM,"O=c1[nH]c(=O)n(-c2cc(Cl)c(Oc3ccc(O)c(S(=O)(=O)NC4CC4)c3)c(Cl)c2)nc1C(F)F [Compound 14, N-cyclopropyl-5-(2,6-dichloro-4-(6-(difluoromethyl)-3,5-dioxo-4,5-dihydro-1,2,4-triazin-2(3H)-yl)phenoxy)-2-hydroxybenzenesulfonamide]"
B (75~90),< 2 nM,B (40~85),< 2 nM,"O=c1[nH]c(=O)n(-c2cc(Cl)c(Oc3ccc(O)c([S@TB3](=O)(=O)N4CCOCC4)c3)c(Cl)c2)nc1C(F)F [Compound 15, 2-(3,5-dichloro-4-(4-hydroxy-3-(morpholinosulfonyl)phenoxy)phenyl)-6-(difluoromethyl)-1,2,4-triazine-3,5(2H,4H)-dione]"
